Measured values taken from ChEMBL document CHEMBL1145498, “A systematic interaction map of validated kinase inhibitors with Ser/Thr kinases” (Proc Natl Acad Sci U S A, 2007).

Assays:
[1] = target: Serine/threonine-protein kinase PAK 6 (Homo sapiens) (UniProt Q9NQU5)
[2] = target: Glycogen synthase kinase-3 beta (Homo sapiens, UniProt P49841)
[3] = target: Serine/threonine-protein kinase OSR1 (Homo sapiens) (UniProt O95747)
[4] = target: Mitogen-activated protein kinase 11 (Homo sapiens, UniProt Q15759)
[5] = target: Serine/threonine-protein kinase PAK 5 (Homo sapiens) (UniProt Q9P286)
[6] = target: Calcium/calmodulin-dependent protein kinase type II subunit gamma (Homo sapiens) (UniProt Q13555)
[7] = target: Calcium/calmodulin-dependent protein kinase type II subunit delta (Homo sapiens) (UniProt Q13557)
[8] = target: Calcium/calmodulin-dependent protein kinase type 1G (Homo sapiens) (UniProt Q96NX5)
[9] = target: Serine/threonine-protein kinase 38 (Homo sapiens) (UniProt Q15208)
[10] = target: Calcium/calmodulin-dependent protein kinase type 1D (Homo sapiens) (UniProt Q8IU85)
[11] = target: T1, Dual specificity mitogen-activated protein kinase kinase 6 (Homo sapiens) (UniProt P52564)
T1 sequence (whole entry): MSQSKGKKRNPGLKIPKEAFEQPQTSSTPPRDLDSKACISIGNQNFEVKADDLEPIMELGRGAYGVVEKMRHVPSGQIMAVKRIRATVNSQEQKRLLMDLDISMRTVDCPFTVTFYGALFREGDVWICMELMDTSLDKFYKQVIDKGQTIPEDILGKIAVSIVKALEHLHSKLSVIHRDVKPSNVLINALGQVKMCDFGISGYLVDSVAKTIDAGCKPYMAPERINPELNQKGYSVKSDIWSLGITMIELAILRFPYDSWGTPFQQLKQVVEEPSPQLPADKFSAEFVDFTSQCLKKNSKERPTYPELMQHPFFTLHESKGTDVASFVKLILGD

[12] = target: Serine/threonine-protein kinase 26 (Homo sapiens) (UniProt Q9P289)
[13] = target: Calcium/calmodulin-dependent protein kinase kinase 2 (Homo sapiens, UniProt Q96RR4)
[14] = target: Serine/threonine-protein kinase RIO2 (Homo sapiens) (UniProt Q9BVS4)
[15] = target: TRAF2 and NCK-interacting protein kinase (Homo sapiens) (UniProt Q9UKE5)
[16] = target: T2, Serine/threonine-protein kinase PLK4 (Homo sapiens) (UniProt O00444)
T2 sequence (whole entry): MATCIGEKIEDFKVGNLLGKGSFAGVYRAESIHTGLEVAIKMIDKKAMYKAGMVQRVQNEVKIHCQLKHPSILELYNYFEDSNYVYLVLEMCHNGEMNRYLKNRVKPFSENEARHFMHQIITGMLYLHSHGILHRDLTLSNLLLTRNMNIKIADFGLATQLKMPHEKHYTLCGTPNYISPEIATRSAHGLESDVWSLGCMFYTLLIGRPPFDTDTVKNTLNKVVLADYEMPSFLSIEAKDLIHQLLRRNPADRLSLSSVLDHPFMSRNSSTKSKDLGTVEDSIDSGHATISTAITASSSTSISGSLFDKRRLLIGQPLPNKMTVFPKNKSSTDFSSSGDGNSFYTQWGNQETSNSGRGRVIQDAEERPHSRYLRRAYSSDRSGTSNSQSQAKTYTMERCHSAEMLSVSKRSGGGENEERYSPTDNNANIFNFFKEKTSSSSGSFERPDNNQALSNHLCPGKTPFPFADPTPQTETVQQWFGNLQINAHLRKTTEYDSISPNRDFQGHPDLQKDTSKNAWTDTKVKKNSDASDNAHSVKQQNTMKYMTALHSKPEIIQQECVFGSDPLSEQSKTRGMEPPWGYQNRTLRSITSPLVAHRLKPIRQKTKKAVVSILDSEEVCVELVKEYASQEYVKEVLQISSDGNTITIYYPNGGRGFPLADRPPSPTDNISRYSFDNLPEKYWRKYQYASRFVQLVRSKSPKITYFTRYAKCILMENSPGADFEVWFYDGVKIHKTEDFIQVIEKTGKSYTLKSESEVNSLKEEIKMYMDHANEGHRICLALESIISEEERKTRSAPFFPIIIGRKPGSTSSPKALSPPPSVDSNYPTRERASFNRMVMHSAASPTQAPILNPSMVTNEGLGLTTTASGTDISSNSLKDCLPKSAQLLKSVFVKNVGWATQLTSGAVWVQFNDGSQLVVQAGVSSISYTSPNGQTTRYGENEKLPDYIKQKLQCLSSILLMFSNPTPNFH

[17] = target: T3, 3-phosphoinositide-dependent protein kinase 1 (Homo sapiens) (UniProt O15530)
T3 sequence (whole entry): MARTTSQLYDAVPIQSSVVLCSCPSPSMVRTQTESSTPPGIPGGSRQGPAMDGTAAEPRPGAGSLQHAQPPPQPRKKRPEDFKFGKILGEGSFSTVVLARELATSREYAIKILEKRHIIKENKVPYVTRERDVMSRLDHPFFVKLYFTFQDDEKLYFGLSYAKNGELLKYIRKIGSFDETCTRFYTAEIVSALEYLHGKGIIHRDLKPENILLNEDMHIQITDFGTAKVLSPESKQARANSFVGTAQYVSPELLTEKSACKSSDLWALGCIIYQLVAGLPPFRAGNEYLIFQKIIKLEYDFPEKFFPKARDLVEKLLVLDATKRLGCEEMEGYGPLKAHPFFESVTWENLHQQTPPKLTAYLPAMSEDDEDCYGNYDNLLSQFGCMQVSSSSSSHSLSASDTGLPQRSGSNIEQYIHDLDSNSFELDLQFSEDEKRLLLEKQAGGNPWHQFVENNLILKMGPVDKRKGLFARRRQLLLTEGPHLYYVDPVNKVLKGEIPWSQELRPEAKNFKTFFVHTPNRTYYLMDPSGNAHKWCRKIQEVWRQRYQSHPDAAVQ

Serine/threonine-protein kinase OSR1 (Homo sapiens), sequence (O95747 2-527 limits assumed): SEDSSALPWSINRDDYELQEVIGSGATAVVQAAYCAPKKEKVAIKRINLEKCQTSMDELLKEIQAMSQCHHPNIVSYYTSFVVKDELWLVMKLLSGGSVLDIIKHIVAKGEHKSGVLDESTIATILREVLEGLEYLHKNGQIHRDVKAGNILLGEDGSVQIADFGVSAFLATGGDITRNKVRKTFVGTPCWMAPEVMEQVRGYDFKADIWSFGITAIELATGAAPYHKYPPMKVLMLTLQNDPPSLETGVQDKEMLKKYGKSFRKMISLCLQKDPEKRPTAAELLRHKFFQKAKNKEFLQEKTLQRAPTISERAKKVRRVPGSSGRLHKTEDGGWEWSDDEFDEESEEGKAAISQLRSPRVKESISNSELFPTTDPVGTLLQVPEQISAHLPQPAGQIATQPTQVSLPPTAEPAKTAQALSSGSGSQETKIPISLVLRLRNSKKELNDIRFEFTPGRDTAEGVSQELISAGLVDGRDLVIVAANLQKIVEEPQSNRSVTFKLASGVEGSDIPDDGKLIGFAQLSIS
Calcium/calmodulin-dependent protein kinase type 1D (Homo sapiens), sequence (Q8IU85 whole entry, looked up): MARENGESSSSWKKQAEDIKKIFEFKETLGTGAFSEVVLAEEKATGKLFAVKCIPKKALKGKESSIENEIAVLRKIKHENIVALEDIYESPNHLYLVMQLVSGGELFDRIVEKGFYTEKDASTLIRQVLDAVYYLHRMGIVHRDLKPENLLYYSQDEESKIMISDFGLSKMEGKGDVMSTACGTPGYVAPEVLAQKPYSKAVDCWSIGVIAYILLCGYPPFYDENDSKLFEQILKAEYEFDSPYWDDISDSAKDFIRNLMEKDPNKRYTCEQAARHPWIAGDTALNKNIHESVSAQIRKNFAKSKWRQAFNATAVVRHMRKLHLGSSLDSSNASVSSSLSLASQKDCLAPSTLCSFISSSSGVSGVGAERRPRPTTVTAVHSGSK
Serine/threonine-protein kinase 26 (Homo sapiens), sequence (Q9P289 2-416 limits assumed): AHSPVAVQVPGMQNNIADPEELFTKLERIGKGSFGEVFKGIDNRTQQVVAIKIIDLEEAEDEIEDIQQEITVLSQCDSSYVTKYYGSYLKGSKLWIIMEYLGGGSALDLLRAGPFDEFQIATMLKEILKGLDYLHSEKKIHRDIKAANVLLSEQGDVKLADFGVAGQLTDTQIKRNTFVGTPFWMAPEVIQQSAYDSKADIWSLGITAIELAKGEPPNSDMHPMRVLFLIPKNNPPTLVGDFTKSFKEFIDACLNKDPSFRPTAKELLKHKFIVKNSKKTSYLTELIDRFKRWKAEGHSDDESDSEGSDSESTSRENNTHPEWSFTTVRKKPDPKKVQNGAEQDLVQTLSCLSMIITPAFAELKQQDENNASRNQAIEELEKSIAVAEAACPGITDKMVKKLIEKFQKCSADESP
Mitogen-activated protein kinase 11, sequence (Q15759 whole entry): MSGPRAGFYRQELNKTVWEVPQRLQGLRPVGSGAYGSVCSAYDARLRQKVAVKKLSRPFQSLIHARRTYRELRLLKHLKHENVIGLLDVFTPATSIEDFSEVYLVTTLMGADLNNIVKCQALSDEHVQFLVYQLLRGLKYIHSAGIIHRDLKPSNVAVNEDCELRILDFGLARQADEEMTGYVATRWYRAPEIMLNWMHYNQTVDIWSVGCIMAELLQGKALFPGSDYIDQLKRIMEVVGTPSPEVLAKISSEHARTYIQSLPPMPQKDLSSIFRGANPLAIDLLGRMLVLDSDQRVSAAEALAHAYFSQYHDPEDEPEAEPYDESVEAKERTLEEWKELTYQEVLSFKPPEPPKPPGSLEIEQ
Glycogen synthase kinase-3 beta, sequence (P49841 whole entry, looked up): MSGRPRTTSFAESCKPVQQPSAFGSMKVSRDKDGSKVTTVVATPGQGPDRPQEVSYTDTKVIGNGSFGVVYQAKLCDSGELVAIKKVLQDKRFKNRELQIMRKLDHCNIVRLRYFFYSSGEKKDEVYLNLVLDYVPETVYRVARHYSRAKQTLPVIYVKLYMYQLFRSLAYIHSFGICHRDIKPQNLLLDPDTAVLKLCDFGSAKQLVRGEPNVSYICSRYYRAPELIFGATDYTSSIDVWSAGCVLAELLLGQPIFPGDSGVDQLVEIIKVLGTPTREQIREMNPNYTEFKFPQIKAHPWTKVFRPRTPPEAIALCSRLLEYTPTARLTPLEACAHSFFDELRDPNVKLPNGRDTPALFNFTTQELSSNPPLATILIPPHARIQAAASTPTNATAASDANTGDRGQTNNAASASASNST
Calcium/calmodulin-dependent protein kinase type II subunit gamma (Homo sapiens), sequence (Q13555 whole entry): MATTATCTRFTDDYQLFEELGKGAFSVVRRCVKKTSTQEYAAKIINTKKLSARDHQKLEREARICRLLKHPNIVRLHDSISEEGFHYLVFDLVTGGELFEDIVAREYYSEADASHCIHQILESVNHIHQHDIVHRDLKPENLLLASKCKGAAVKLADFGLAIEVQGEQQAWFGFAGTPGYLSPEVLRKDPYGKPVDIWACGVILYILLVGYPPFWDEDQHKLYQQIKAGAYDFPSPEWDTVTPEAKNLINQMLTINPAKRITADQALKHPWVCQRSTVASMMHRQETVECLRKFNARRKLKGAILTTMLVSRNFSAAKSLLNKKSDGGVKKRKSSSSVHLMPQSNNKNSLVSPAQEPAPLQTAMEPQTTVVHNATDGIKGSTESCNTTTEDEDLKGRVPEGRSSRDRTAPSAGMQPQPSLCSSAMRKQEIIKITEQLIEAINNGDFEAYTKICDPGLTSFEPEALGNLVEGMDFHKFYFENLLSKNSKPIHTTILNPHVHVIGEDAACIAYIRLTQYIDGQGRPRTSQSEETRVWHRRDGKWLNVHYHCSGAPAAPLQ
Serine/threonine-protein kinase 38 (Homo sapiens), sequence (Q15208 2-465 limits assumed): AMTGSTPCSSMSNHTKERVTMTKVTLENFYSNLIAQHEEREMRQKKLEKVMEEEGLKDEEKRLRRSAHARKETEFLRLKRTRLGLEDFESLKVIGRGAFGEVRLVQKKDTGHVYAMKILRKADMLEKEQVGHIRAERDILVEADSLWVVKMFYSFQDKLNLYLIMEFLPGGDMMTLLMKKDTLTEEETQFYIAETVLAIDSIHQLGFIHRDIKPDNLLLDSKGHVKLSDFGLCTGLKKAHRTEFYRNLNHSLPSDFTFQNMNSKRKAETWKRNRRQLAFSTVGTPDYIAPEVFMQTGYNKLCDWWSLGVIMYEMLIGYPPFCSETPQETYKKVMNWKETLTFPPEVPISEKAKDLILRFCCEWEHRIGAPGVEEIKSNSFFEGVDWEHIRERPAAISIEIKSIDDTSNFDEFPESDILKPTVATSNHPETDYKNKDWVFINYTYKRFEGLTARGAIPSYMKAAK
Serine/threonine-protein kinase RIO2 (Homo sapiens), sequence (Q9BVS4 whole entry, looked up): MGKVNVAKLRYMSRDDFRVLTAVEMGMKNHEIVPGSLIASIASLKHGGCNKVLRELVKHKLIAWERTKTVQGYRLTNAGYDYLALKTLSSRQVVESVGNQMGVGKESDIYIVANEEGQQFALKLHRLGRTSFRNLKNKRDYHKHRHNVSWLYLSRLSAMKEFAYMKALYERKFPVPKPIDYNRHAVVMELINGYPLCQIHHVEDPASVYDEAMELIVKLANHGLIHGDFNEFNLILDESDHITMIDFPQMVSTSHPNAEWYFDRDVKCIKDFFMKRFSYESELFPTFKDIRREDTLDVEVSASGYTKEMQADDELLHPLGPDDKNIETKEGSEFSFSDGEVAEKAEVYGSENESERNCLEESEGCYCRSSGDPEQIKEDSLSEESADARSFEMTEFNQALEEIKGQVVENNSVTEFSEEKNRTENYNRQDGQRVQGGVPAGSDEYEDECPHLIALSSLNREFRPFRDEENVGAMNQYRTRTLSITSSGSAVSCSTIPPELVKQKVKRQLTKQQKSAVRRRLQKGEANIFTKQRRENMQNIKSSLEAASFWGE
Serine/threonine-protein kinase PAK 5 (Homo sapiens), sequence (Q9P286 whole entry, looked up): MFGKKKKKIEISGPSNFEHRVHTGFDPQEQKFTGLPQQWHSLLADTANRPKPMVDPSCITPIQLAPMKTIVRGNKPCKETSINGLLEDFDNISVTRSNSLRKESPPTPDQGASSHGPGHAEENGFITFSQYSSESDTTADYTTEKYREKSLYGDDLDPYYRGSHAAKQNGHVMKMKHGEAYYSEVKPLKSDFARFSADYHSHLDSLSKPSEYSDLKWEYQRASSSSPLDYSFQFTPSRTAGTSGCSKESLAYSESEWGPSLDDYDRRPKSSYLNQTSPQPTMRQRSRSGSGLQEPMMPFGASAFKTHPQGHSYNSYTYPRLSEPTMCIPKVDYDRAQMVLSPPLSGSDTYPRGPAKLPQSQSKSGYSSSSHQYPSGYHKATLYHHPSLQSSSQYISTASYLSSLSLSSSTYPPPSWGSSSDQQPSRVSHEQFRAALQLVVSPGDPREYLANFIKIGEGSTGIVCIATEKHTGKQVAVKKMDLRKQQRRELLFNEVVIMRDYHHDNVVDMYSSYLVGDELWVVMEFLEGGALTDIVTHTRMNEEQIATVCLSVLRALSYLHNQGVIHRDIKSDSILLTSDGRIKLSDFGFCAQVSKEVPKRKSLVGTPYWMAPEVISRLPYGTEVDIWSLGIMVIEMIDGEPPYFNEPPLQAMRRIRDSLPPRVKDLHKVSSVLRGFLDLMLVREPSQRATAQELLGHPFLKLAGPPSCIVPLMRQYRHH
Calcium/calmodulin-dependent protein kinase type 1G (Homo sapiens), sequence (Q96NX5 whole entry): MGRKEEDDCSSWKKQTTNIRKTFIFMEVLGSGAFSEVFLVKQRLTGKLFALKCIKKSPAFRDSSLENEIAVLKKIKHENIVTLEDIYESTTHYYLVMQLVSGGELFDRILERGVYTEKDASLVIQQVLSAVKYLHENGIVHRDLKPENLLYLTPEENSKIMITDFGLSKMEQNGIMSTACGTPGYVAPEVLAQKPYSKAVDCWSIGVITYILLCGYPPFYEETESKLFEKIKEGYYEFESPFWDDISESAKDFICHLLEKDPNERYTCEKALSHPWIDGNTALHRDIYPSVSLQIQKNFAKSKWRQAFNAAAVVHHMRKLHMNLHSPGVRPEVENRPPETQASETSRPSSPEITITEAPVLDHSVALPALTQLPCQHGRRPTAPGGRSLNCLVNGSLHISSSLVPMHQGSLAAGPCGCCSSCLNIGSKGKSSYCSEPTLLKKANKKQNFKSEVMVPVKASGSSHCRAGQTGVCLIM

Cn1cc(/C=C2/C(=O)Nc3ccc(S(N)(=O)=O)cc32)c2ccccc21
ΔTm [1]: -0.6 °C | ΔTm [2]: 11.6 °C | ΔTm [3]: 3.7 °C | ΔTm [4]: 0.2 °C | ΔTm [5]: 4.3 °C | ΔTm [6]: 0.5 °C | ΔTm [7]: 2.5 °C | ΔTm [8]: 0.5 °C | ΔTm [9]: 3.6 °C | ΔTm [10]: 2 °C | ΔTm [11]: 10.3 °C | ΔTm [12]: 5.7 °C | ΔTm [13]: 3.5 °C | ΔTm [14]: 5 °C | ΔTm [15]: 1.3 °C | ΔTm [16]: 6.2 °C | ΔTm [17]: 0.2 °C

Cn1cc(C2=C(c3cn(CCCN)c4ccccc34)C(=O)NC2=O)c2ccccc21
ΔTm [1]: 4.5 °C | ΔTm [2]: 11.9 °C | ΔTm [3]: -0.1 °C | ΔTm [4]: 0.5 °C | ΔTm [5]: 1.4 °C | ΔTm [6]: 3.7 °C | ΔTm [7]: -0.5 °C | ΔTm [8]: 0.3 °C | ΔTm [9]: 0.2 °C | ΔTm [10]: 0.3 °C | ΔTm [11]: 0.8 °C | ΔTm [12]: 2.1 °C | ΔTm [13]: -0.1 °C | ΔTm [14]: 0.5 °C | ΔTm [15]: 0.8 °C | ΔTm [16]: 1.8 °C | ΔTm [17]: -0.1 °C
